In patent US20250144067A1, “PERSONALIZED STARVATION THERAPY FOR CANCER” (Faeth Therapeutics, Inc., priority 2021, published 2025):
Structures can show the parent of a compound that is named as a salt. Where two headings read alike, the source gives them in different places.

Experiments:
[1] = tested on: NCI-H292 lung cancer cells; test: FDA drug screening, complete media vs cholesterol-free media without statin (TABLE 1); type: cell-based, human
[2] = tested on: NCI-H292 lung cancer cells; test: FDA drug screening, complete media vs cholesterol-free media with simvastatin (TABLE 2); type: cell-based, human
[3] = Complete minus Cholesterol-free, […]
[4] = NCI-H292 cells, cholesterol-free media with simvastatin 0.04 μM, FDA drug library screen (TABLE 2)
[5] = NCI-H292 cells, complete media, FDA drug library screen (TABLE 2)
[6] = Complete minus Cholesterol-free, >0 enhanced anti-cancer activity, about 0 neutral, <0 antagonist
[7] = NCI-H292 cells, cholesterol-free media without statin
[8] = complete media minus cholesterol-free media + simvastatin (0.04 μM), >0 enhanced anti-cancer activity, about 0 neutral, <0 antagonist
[9] = complete vs cholesterol-free media, greater than 0 enhanced anti-cancer activity, about 0 neutral, below 0 antagonists
[10] = NCI-H292 cells, drug in cholesterol-free media with simvastatin 0.04 μM
[11] = NCI-H292 cells, drug in complete media
[12] = complete media vs cholesterol-free media + simvastatin (0.04 μM), >0 enhanced anti-cancer activity, about 0 neutral, <0 antagonist
[13] = Complete minus Cholesterol-free, greater than 0 enhanced anti-cancer activity, about 0 neutral, below 0 antagonist
[14] = NCI-H292 cells, FDA drug library screen, cholesterol-free media without statin
[15] = NCI-H292 cells, FDA drug library screen, complete media
[16] = NCI-H292 cells, FDA drug library screen, cholesterol-free media with simvastatin 0.04 μM

Molecule: COc1cc(S(=O)(=O)[O-])ccc1O.[K+] [Sulfogaiacol]
- Difference [1, 3]: −0.01
- Cholesterol-free ([1]; NCI-H292 cells, cholesterol-free media without statin, FDA drug library screen): 0.8896
- Complete ([1]; NCI-H292 cells, complete media, FDA drug library screen): 0.8811
- Cholesterol-free media + simvastatin (0.04 μM) [2, 4]: 0.9781
- Complete Media [2, 5]: 0.9488
- Difference ([2]; complete media minus cholesterol-free media + simvastatin (0.04 μM), […]): −0.03

Molecule: Ribociclib succinate
- Difference [1, 6]: −0.23
- Cholesterol-free [1, 7]: 0.9857
- Complete ([1]; NCI-H292 cells, complete media): 0.7555
- Cholesterol-free media + simvastatin (0.04 μM) [2, 4]: 0.606
- Complete Media [2, 5]: 0.6094
- Difference [2, 8]: 0.00

Molecule: CC1CS(=O)(=O)CCN1/N=C/c1ccc([N+](=O)[O-])o1 (stereo not drawn) [Nifurtimox]
- Cholesterol-free [1, 7]: 1.443
- Complete ([1]; NCI-H292 cells, complete media): 1.102
- Difference [1, 9]: −0.34
- Cholesterol-free media + simvastatin (0.04 μM) [2, 10]: 1.357
- Complete Media [2, 11]: 1.111
- Difference [2, 12]: −0.25

Molecule: Cl.Cl.OCCOCCN1CCN(C(c2ccccc2)c2ccccc2)CC1 [Decloxizine (dihydrochloride)]
- Difference [1, 3]: −0.22
- Cholesterol-free [1, 7]: 1.186
- Complete ([1]; NCI-H292 cells, complete media): 0.9687
- Cholesterol-free media + simvastatin (0.04 μM) ([2]; NCI-H292 cells, cholesterol-free media with simvastatin 0.04 μM, […]): 0.9553
- Complete Media ([2]; NCI-H292 cells, complete media, […]): 1.042
- Difference ([2]; complete media minus cholesterol-free media + simvastatin, […]): 0.09

Molecule: N[C@@H](CS)C(=O)O [L-Cysteine]
- Difference [1, 6]: −0.21
- Complete ([1]; NCI-H292 cells, complete media): 0.7323
- Cholesterol-free media + simvastatin (0.04 μM) [2, 4]: 1.471
- Complete Media [2, 5]: 1.439
- Difference [2, 8]: −0.03

Molecule: CC1=C(C(=O)OCCN(Cc2ccccc2)c2ccccc2)C(c2cccc([N+](=O)[O-])c2)C(P2(=O)OCC(C)(C)CO2)=C(C)N1.CCO.Cl (stereo not drawn)
- Difference [1, 13]: −0.15
- Cholesterol-free [1, 14]: 0.9837
- Complete [1, 15]: 0.8325
- Cholesterol-free media + simvastatin (0.04 μM) [2, 16]: 1.113
- Complete Media [2, 15]: 1.012
- Difference [2, 12]: −0.10

Molecule: Cc1ccc(C(=O)Nc2ccc(CN3CCN(C)CC3)c(C(F)(F)F)c2)cc1C#Cc1cnc2cccnn12 [Ponatinib]
- Cholesterol-free [1]: 0.1141
- Complete [1]: 0.07529
- Difference [1]: −0.04
- Cholesterol-free media + simvastatin (0.04 μM) [2]: 0.4683
- Complete Media [2]: 0.4064
- Difference [2]: −0.06

Molecule: CS(=O)(=O)c1cccc(C[C@H](NC(=O)c2c(Cl)cc3c(c2Cl)CCN(C(=O)c2ccc4ccoc4c2)C3)C(=O)O)c1 [Lifitegrast]
- Difference [1, 13]: −0.15
- Cholesterol-free [1, 14]: 1.11
- Complete [1, 15]: 0.9552
- Cholesterol-free media + simvastatin (0.04 μM) [2, 16]: 1.009
- Complete Media [2, 15]: 0.8652
- Difference [2, 12]: −0.14

Molecule: Cn1c(CCCC(=O)O)nc2cc(N(CCCl)CCCl)ccc21 [Bendamustine (hydrochloride)]
- Difference [1, 3]: −0.21
- Cholesterol-free [1, 7]: 1.195
- Complete ([1]; NCI-H292 cells, complete media): 0.9866
- Cholesterol-free media + simvastatin (0.04 μM) [2, 10]: 1.142
- Complete Media [2, 11]: 0.9554
- Difference ([2]; complete media vs cholesterol-free media + simvastatin (0.04 μM), […]): −0.19

Molecule: COC(=O)/C=C/C(=O)OCCN1C(=O)CCC1=O [Diroximel fumarate]
- Difference [1, 6]: −0.30
- Cholesterol-free [1, 7]: 1.046
- Complete ([1]; NCI-H292 cells, complete media): 0.7458
- Cholesterol-free media + simvastatin (0.04 μM) [2, 16]: 0.9299
- Complete Media [2, 15]: 1.101
- Difference ([2]; complete media minus cholesterol-free media + simvastatin, >0 enhanced anti-cancer activity, about 0 neutral, <0 antagonist): 0.17

Molecule: Levamlodipine besylate
- Cholesterol-free [1]: 1.261
- Difference [1]: −0.22
- Cholesterol-free media + simvastatin (0.04 μM) [2]: 1.066
- Complete Media [2]: 0.9372
- Difference [2]: −0.13

Molecule: Nc1c(CC(=O)O)cccc1C(=O)c1ccc(Br)cc1 [Bromfenac (sodium)]
- Cholesterol-free [1, 7]: 1.333
- Complete ([1]; NCI-H292 cells, complete media): 0.9935
- Difference [1, 9]: −0.34
- Complete Media ([2]; NCI-H292 cells, FDA library drug in complete media): 1.029
- Difference [2, 12]: −0.59
